Patent EP0607373B1, “TRISUBSTITUTED PHENYL DERIVATIVES AS SELECTIVE PHOSPHODIESTERASE IV INHIBITORS” (CELLTECH THERAPEUTICS LIMITED, priority 1992, dated 1993)

How the values were obtained:
PDE IV, HL60 cells = test: Isolated enzyme phosphodiesterase assay, PDE IV; type: biochemical; conditions: 0.1µM [3H]-cAMP, 30°C, pH 7.5, read-out: approximate Ki values (Ki PDE IV HL60 at (1µM))
Description: The potency and selectivity of the compounds of the invention was determined using a battery of distinct PDE isoenzymes as follows: • i. PDE I, rabbit heart • ii. PDE II, rabbit heart • iii. PDE III, rabbit heart • iv. PDE IV, HL60 cells.
The enzymes were purified to kinetic homogeneity using standard chromatographic techniques.
Phosphodiesterase activity was assayed as follows. The reaction was conducted in 150µl of standard mixture containing (final concentrations): 50mM TES-NaOH buffer (pH 7.5), 10mM MgCl2, 0.1µM [^3H]-cAMP and vehicle or various concentrations of the test compounds. The reaction was initiated by addition of enzyme and conducted at 30°C for between 5 to 30 mins. The reaction was terminated by addition of 50µl 2% trifluoroacetic acid containing [^14C]-5'AMP for determining recovery of the product. An aliquot of the sample was then applied to a column of neutral alumina and the [^3H]-cAMP eluted with 10ml 0.1 TES-NaOH buffer (pH8). The [^3H]-5'-AMP product was eluted with 2ml 2M NaOH into a scintillation vial containing 10ml of scintillation cocktail. Recovery of [^3H]-5'AMP was determined using the [^14C]-5'AMP and all assays were conducted in the linear range of the reaction.

[1] = test system: Right atrial and papillary muscles; conditions: reference inhibitors, general statement on these preparations; cited from earlier work

COc1ccc(NC(=O)c2ccccc2)cc1OC1CCCC1 [Example 1, N-Benzoyl-3-cyclopentyloxy-4-methyloxyaniline]
Ki (PDE IV, HL60 cells): ~391 nM

COc1ccc(NC(=O)c2ccccc2[N+](=O)[O-])cc1OC1CCCC1 [Example 3, 3-Cyclopentyloxy-4-methyloxy-N-(2-Nitrobenzoyl)aniline]
Ki (PDE IV, HL60 cells): ~179 nM

Cc1[nH]c(=O)c(C#N)cc1-c1ccncc1 [milrinone]
direct effects on isolated cardiac muscle (chronotropic, inotropic) [1]: positive chronotropic and inotropic effects

COc1ccc(C2CNC(=O)C2)cc1OC1CCCC1 (stereo not shown) [rolipram]
direct effects on isolated cardiac muscle (chronotropic, inotropic) [1]: do not have any direct effects
